Laboratory results taken from patent US8071640B2, “Urea oligomers, their preparation process and pharmaceutical compositions containing them” (Centre National de la Recherche Scientifique, priority 2001, dated 2011).
Like-named read-outs stand apart in the source and are kept apart here.

What was measured:
erythrocytes = test: Hemolysis test; format: cell-based, monkey (macaque); conditions: 100 μg per ml of suspension (positive control); macaque erythrocytes, one hour at 37° C.
Protocol: A compound acting on the membranes of bacteria can potentially disturb the membranes of mammalian cells. The red blood cells or erythrocytes serves as a model of eukaryotic cells where the degree of membrane permeation is easily evaluated by measuring the quantity of hemoglobin released through the pores of the embrittled membranes and the concentration of which is directly proportional to the optical density at 450 nm.
The erythrocytes are prepared from freshly sampled monkey blood (macaque). The heparinized blood is centrifuged and washed three times with cold PBS and resuspended at 10% (v/v) in PBS. 10 μl of an aqueous solution of the products to be tested are added to 90 μl of suspension of red blood cells. The erythrocytes are incubated for one hour at 37° C. The suspension is centrifuged in order to recover the supernatant which is more or less red depending on the degree of hemolysis. The concentration of hemoglobin released in the supernatant is measured by the optical density at 450 nm. In the negative control the red blood cells are incubated in the absence of product and show an OD of 0.100% hemolysis is obtained with 100 μg cetylpyridinium chloride per ml of suspension. The degree of hemolysis is evaluated with respect to the positive control for the different concentrations of the products tested.

Staphylococcus aureus = format: cell-based; conditions: 24 h
Protocol: (§1) The compounds tested all form part of the polyurea class and were obtained in the laboratory by chemical route. Tests for the inhibition of the growth of bacteria and fungi were carried out in liquid tests. The specific activity of each molecule is expressed by the minimal inhibitory concentration on the growth of the bacteria and/or fungi, called MIC. The MIC is a value specific to each compound and varies as a function of the organisms tested. It should be noted that the MIC values follow a logarithmic progression, which is due to a two-by-two dilution of the compounds tested in a series of tests. The molecules tested were presented in the form of salts which are soluble in water and thus the culture medium of the microorganisms.
(§2) For carrying out the tests, 96-well plates were used. Each well contains 90 μl of a suspension of bacteria diluted in PB medium (Poor Broth, Difco) in order to have a final concentration of 1 mOD. 10 μl of compound in solution in sterile water at concentrations ranging from 1 mg/ml to 2 μg/ml are added to the tests. The plates are placed under stirring at 29° C. for 24 hours. The growth of the bacteria is measured by measuring the turbidity of the culture medium and measuring the OD at 595 nm. The value of the MIC corresponds to the concentration of the substances to be tested where no growth of bacteria is noted (OD=0).

Pseudomonas aeruginosa = format: cell-based
Protocol: as §1, §2

Salmonella cloacae = format: cell-based
Protocol: as §1, §2

E. coli D363 = format: cell-based
Protocol: as §1, §2

Micrococcus luteus = format: cell-based
Protocol: as §1, §2

Neurospora crassa = format: cell-based
Protocol: as §1, with “microorganisms. The antifungal tests are carried out in similar fashion with ½ PDB (Potato dextrose broth, Difco) as culture medium and 10,000 spores per ml of culture. An optical control under a reverse microscope is necessary in the case of the fungi in order to evaluate the formation of the mycelia of the filamentous fungi (Aspergillus fumigatus, Neurospora crassa). The CMC is determined after culture for 48 hours at 29° C. and corresponds to the concentration where no formation of mycelium is observed.” for “microorganisms.”

Aspergillus fumigatus = format: cell-based
Protocol: as §1, with “microorganisms. The antifungal tests are carried out in similar fashion with ½ PDB (Potato dextrose broth, Difco) as culture medium and 10,000 spores per ml of culture. An optical control under a reverse microscope is necessary in the case of the fungi in order to evaluate the formation of the mycelia of the filamentous fungi (Aspergillus fumigatus, Neurospora crassa). The CMC is determined after culture for 48 hours at 29° C. and corresponds to the concentration where no formation of mycelium is observed.” for “microorganisms.”

Compound	hemolysis (erythrocytes)	Minimum inhibitory concentration (Staphylococcus aureus)	Minimum inhibitory concentration (Pseudomonas aeruginosa; 24 h)	Minimum inhibitory concentration (Pseudomonas aeruginosa; Pseudomonas aeruginosa, PB medium, 24 hours at 29° C.)	Minimum inhibitory concentration (Salmonella cloacae; 24 h)	Minimum inhibitory concentration (Salmonella cloacae; Salmonella cloacae, PB medium, 24 hours at 29° C.)	Minimum inhibitory concentration (E. coli D363; D363, 24 h)	Minimum inhibitory concentration (E. coli D363; E. coli D363, PB medium, 24 hours at 29° C.)	Minimum inhibitory concentration (Micrococcus luteus; 24 h)	Minimum inhibitory concentration (Micrococcus luteus; Micrococcus luteus, PB medium, 24 hours at 29° C.)	Minimum inhibitory concentration (Neurospora crassa; 48 h)	Minimum inhibitory concentration (Neurospora crassa; Neurospora crassa, ½ PDB, 10,000 spores per ml, 48 hours at 29° C.)	Minimum inhibitory concentration (Aspergillus fumigatus; 48 h)	Minimum inhibitory concentration (Aspergillus fumigatus; Aspergillus fumigatus, ½ PDB, 10,000 spores per ml, 48 hours at 29° C.)
CCCCCCCCCCCCCCCC[n+]1ccccc1 [cetylpyridinium chloride]	100%													
H-YLVFKAVY-NH2 [Peptide L (control), H-Tyr-Leu-Val-Phe-Lys-Ala-Val-Tyr-NH2]		>121 µg/mL	82 µM	121 µg/mL	2.6 µM	3.8 µg/mL	2.6 µM	3.8 µg/mL	2.6 µM	3.8 µg/mL	20 µM	30 µg/mL	82 µM	121 µg/mL
